One data set relates to CQS 3D7 strain. Description: In vitro antiplasmodial activity, SYBR Green I-based fluorescent assay. It counts as cell-based, P. falciparum. The conditions noted are these: Plasmodium falciparum, 3D7, 72 h, read-out: Antiplasmodial activity EC50 3D7.
Data set [1] concerns CQR Dd2 strain of P. falciparum. Description: microbe, parasite or virus in culture. The data set is classed as cell-based.
Another data set in a line: in vitro. The conditions noted are these: human.
In data set [2] the test system is tightly synchronized P. falciparum Dd2 cultures. The data set can be described thus: Stage specific action assay. The data set is classed as cell-based. The conditions noted are these: 5 × EC50, synchronized Dd2, late schizont/segmenters.
For data set [3], the system named is P. falciparum Dd2 asynchronous cultures. The data set can be described thus: In vitro killing profile assay. It counts as cell-based. The conditions noted are these: 5 × EC50, Dd2, compound washed out, growth monitored 96 h.
Where [4] appears, read: Plasmodium falciparum, DD2, 72 h, read-out: Antiplasmodial activity EC50 Dd2, CQR Dd2 strain, 72 h incubation, at least three independent experiments.

Read-outs that look alike come from different tables or passages of the source.

The EC50 is the concentration at which the effect is half-maximal.

For the molecule `CCN(CC)CCCC(C)Nc1ccnc2cc(Cl)ccc12` (centres unmarked) [CQ, chloroquine], the concentration for a half-maximal effect (EC50) was found to be 20 ± 10 nM in the data set on CQS 3D7 strain and 170 ± 20 nM in data set [1] (Plasmodium falciparum, DD2, 72 h, read-out: Antiplasmodial activity EC50 Dd2). The midpoint of the response in the data set “in vitro”, the EC50 at 48 h, lay at 10400 ± 860 nM.
`Clc1ccc2nc(/C=C/c3ccncc3)cc(-n3cc(CN4CCOCC4)nn3)c2c1` [compound 28, (E)-4-((1-(6-chloro-2-(2-(pyridin-4-yl)vinyl)quinolin-4-yl)-1H-1,2,3-triazol-4-yl)-methyl)morpholine]: the EC50 in data set [1] (setting [4]) is > 8000 nM.
Consider `CN1CCN(Cc2cn(-c3cc(/C=C/c4ccncc4)nc4ccc(Cl)cc34)nn2)CC1` [compound 29, (E)-6-chloro-4-(4-((4-methylpiperazin-1-yl)methyl)-1H-1,2,3-triazol-1-yl)-2-(2-(pyridin-4-yl)vinyl)quinoline], for which the EC50 in data set [1] (setting [4]) is > 8000 nM.
With `O=C1c2ccccc2C(=O)N1Cc1cn(-c2cc(/C=C/c3ccncc3)nc3ccc(Cl)cc23)nn1` [compound 32, (E)-2-((1-(6-chloro-2-(2-(pyridin-4-yl)vinyl)quinolin-4-yl)-1H-1,2,3-triazol-4-yl)methyl)isoindoline-1,3-dione], the EC50 in data set [1] (setting [4]) was > 8000 nM.
Take `Clc1ccc2nc(/C=C/c3ccncc3)cc(NCCn3cc(CN4CCOCC4)nn3)c2c1` [compound 53, (E)-6-chloro-N-(2-(4-(morpholinomethyl)-1H-1,2,3-triazol-1-yl)ethyl)-2-(2-(pyridin-4-yl)vinyl)quinolin-4-amine]: in data set [1] (Dd2 EC50 ratio), the “fold improved activity over analogue 28” value is given as “above 5 fold”.
As for `O=C1c2ccccc2C(=O)N1Cc1cn(CCNc2cc(/C=C/c3ccncc3)nc3ccc(Cl)cc23)nn1` [compound 57, (E)-2-((1-(2-((6-chloro-2-(2-(pyridin-4-yl)vinyl)quinolin-4-yl)amino)ethyl)-1H-1,2,3-triazol-4-yl)methyl)isoindoline-1,3-dione], the “fold more potent than compound 32” value in data set [1] (Dd2 EC50 ratio) was ~8 fold.
In the case of `Clc1ccc2nc(/C=C/c3ccncc3)cc(NCCCCn3cc(CN4CCCCC4)nn3)c2c1` [compound 60, (E)-6-chloro-N-(4-(4-(piperidin-1-ylmethyl)-1H-1,2,3-triazol-1-yl)butyl)-2-(2-(pyridin-4-yl)vinyl)quinolin-4-amine], in data set [2], the “effect on intraerythrocytic development, compound added at 42 h” value was “did not affect the schizont maturation and reinvasion of new merozoites”. For the same molecule, the “parasite viability after 24 and 48 h exposure” value in data set [3] is recorded as “complete loss of parasite viability”.
In the case of “(E)-2-((1-(4-((6-chloro-2-styrylquinolin-4-yl)amino)butyl)-1H-1,2,3-triazol-4-yl)methyl)isoindoline-1,3-dione [compound 64]”, in data set [1] (read-out: Antiplasmodial activity EC50 Dd2, CQR Dd2 strain, 72 h incubation, at least three independent experiments), the half-maximal effective concentration (EC50) was found to be 1000 ± 180 nM.

(Values after publication PMC7744367 (European journal of medicinal chemistry, 2020).)
